Laboratory results reported in patent publication US7186695B2 (priority 2001, dated 2007).
Entries after “also recorded” stand apart in the source; their conditions may differ.

Tests used:
HMEC-1 or HUVE cells = experiment: Labelling of endothelial cell surface proteins with GSAO-B; assay type: cell-based, human; details: GSAO-B 100 μM, 30 minutes
Procedure: FIG. 16. Identification of endothelial cell surface proteins that contain closely spaced dithiol(s). A The surface of HMEC-1 or HUVE cells (2×10^6 cells in 0.4 mL) was labelled with GSAO-B (100 μM) for 30 minutes at room temperature in the absence (lanes 1 and 3) or presence of DMP (400 μM) (lane 2). The endothelial cells were lysed and the lysate from both incubations was resolved on 4–15% SDS-PAGE, transferred to PVDF membrane, and blotted with streptavidin peroxidase to detect the GSAO-B label. The results represent labelling of 3×10^4 HMEC-1 (lanes 1 and 2) of HUVE cells (lane 3). The positions of Mr markers are shown at left. B Densitometry profile of the surface labelled proteins (lanes 1 and 3). The apparent Mr's of the individual proteins are indicated.
Human umbilical vein endothelial cells (HUVEC) (Wall et al., 1978) and the human dermal microvascular endothelial cell line, HMEC-1 (Ades et al., 1992), were harvested and cultured as indicated. […] Bound proteins were washed 5 times with 50 mM Tris/HCl, pH 8 buffer containing 0.15 M NaCl and 0.05% Triton X-100, resolved on SDS-PAGE, transferred to PVDF membrane, and the GSAO-B-labelled proteins detected by Western blot.

[1] = test system: PDI on the endothelial cell surface; experiment: GSAO-B labelling of cell surface PDI, streptavidin-agarose pull-down and anti-PDI blot; assay type: cell-based, bovine; details: GSAO-B 100 μM, absence of DMP
Procedure: FIG. 17. PDI was one of the GSAO-B labelled proteins on the endothelial cell surface. HUVEC (5×10^6 cells in 0.75 mL) were labelled with GSAO-B (100 μM) for 30 minutes at 37° C. in the absence (lanes 1) or presence of DMP (400 μM) (lane 2). The cells were lysed and incubated with streptavidin-agarose beads to collect the biotin-labelled proteins. The labelled proteins were resolved on 4–15% SDS-PAGE, transferred to PVDF membrane, and blotted with anti-PDI monoclonal antibodies. The results represent labelling of 5×10^6 endothelial cells. The positions of Mr markers are shown at left.
BAE cells were labelled with GSAO-B in the absence or presence of DMP, lysed and incubated with streptavidin-agarose beads to collect the biotin-labelled proteins. The labelled proteins were eluted from the beads, resolved on SDS-PAGE, transferred to PVDF membrane, and blotted with anti-PDI polyclonal antibodies.

Thioredoxin = target: T1, Thioredoxin (Homo sapiens, UniProt P10599); experiment: Incorporation of GSAO-B into purified protein, streptavidin-peroxidase blot; assay type: binding; details: GSAO-B 100 μM, protein 5 μM, 30 minutes
T1 construct: purchased American Diagnostica, Greenwich, Conn; host or cells: E. coli
T1 sequence (P10599 1-105): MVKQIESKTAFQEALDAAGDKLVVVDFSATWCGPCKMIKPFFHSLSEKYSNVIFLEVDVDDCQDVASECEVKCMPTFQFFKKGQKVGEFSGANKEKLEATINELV
Procedure: (§1) FIG. 14. Interaction of GSAO-B with PDI and thioredoxin. A Structure of GSAO-B. B Purified human recombinant PDI (5 μM), human recombinant thioredoxin (5 μM) or bovine serum albumin (5 μM) was incubated with dithiothreitol (10 μM) for 60 minutes at room temperature to ensure that the active site disulfide(s) of PDI and thioredoxin were in the reduced dithiol form. GSAO-B (100 μM) or GSAO-B and DMP (400 μM) was then added and the reactions incubated for 30 minutes at room temperature. The labelled PDI (lanes 1 and 2), thioredoxin (lanes 3 and 4) and albumin (lane 5) (75 pmoles) was resolved on […] SDS-PAGE, transferred to PVDF membrane, and blotted with streptavidin-peroxidase to detect the GSAO-B label. The positions of Mr markers are shown at left.
(§2) Human recombinant PDI and thioredoxin bound GSAO-B (FIG. 14). Recombinant human protein disulfide isomerase (PDI) was produced in E. coli and purified according to Jiang et al. (1999). In the experiment, purified PDI, thioredoxin or albumin as negative control were incubated with a 2-fold molar excess of dithiothreitol for 60 minutes to ensure that the active site disulfides of PDI and thioredoxin were in the reduced dithiol state. The proteins were then incubated with GSAOB or GSAO-B and a 4-fold molar excess of DMP for 30 minutes. Equivalent moles of the labelled proteins were resolved on SDS-PAGE, transferred to PVDF membrane, and blotted with streptavidin-peroxidase to detect the GSAO-B label. Samples were resolved on 4–15% SDS-PAGE under non-reducing conditions (Laemmli, 1970) and transferred to PVDF membrane. Proteins were detected by Western blot using an anti-PDI murine monoclonal antibody (Jiang et al., 1999) (used at 2 μg per mL). Rabbit anti-mouse horseradish peroxidase conjugated antibodies (Dako Corporation, Carpinteria, Calif.) were used at 1:2000 dilution. GSAO-B-labelled proteins were blotted with streptavidin peroxidase (Amersham, Sydney, NSW) used at 1:1000 dilution. […] Chemiluminescence films were analysed using a GS-700 Imaging Densitometer and Multi-Analyst software (Bio-Rad, Hercules, Calif.).

Human recombinant PDI = target: T2, Human recombinant PDI (Homo sapiens, UniProt P07237); experiment: as above; assay type: binding
T2 construct: made in house; host or cells: E. coli
T2 sequence (P07237 18-508): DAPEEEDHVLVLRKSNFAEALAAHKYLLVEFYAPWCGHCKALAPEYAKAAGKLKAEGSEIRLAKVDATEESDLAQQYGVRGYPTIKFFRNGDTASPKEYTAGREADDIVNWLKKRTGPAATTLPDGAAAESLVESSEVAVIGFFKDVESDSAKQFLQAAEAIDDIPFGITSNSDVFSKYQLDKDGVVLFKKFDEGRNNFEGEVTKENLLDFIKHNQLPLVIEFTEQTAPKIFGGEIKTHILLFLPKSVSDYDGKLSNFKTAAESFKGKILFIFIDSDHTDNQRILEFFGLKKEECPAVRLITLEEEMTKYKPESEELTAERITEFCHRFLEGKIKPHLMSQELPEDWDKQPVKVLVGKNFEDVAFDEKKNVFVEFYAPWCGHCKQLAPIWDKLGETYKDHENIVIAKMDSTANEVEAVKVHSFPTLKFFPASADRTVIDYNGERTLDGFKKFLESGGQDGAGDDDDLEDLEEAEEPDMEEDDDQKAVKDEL
Procedure: as §1, §2

bovine serum albumin = bovine serum albumin (Bos taurus, UniProt P02769); experiment: Incorporation of GSAO-B into purified protein, streptavidin-peroxidase blot (negative control protein); assay type: binding; details: GSAO-B 100 μM, protein 5 μM, 30 minutes
bovine serum albumin, sequence (P02769 25-607): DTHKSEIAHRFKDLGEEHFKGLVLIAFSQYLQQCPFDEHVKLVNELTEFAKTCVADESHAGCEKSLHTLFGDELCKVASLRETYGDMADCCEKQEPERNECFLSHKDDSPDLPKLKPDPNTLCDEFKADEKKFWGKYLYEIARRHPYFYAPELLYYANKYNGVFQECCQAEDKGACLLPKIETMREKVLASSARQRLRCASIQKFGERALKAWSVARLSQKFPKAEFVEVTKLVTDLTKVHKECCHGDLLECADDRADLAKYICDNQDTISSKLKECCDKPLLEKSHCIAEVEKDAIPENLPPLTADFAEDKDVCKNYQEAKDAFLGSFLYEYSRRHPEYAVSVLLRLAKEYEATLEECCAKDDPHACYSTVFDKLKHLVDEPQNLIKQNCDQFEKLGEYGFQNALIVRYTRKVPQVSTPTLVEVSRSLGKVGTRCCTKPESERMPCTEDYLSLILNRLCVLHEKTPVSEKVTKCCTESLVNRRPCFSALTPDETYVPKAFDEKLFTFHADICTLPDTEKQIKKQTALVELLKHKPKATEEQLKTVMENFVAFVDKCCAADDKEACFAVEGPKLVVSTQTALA
Procedure: as §1
Human recombinant PDI and thioredoxin bound GSAO-B (FIG. 14). Recombinant human protein disulfide isomerase (PDI) was produced in E. coli and purified according to Jiang et al. (1999). […] Proteins were detected by Western blot using an anti-PDI murine monoclonal antibody (Jiang et al., 1999) (used at 2 μg per mL). […] Chemiluminescence films were analysed using a GS-700 Imaging Densitometer and Multi-Analyst software (Bio-Rad, Hercules, Calif.).

BAE cells = experiment: cells; details: Bos taurus, Endothelial cell, 24 h, read-out: IC50 for viability

## 4-(N-(S-(N-(6-(N-(6-(N-(biotinoyl)-amino)hexanoyl)amino)hexanoyl)glutathiony)acetyl)amino)phenylarsenoxide [GSAO-B]
HMEC-1 or HUVE cells
  proteins on the endothelial cell surface that incorporated GSAO-B: approximately ten proteins
[1]
  labelling of cell surface PDI by GSAO-B: PDI was one of the proteins on the endothelial cell surface that incorporated GSAO-B
Thioredoxin
  incorporation of GSAO-B: bound GSAO-B; also recorded: incorporated GSAO-B
Human recombinant PDI; GSAO-B 100 μM, protein 5 μM, 30 minutes
  incorporation of GSAO-B: bound GSAO-B; also recorded: incorporated GSAO-B
Human recombinant PDI; equivalent moles of labelled proteins
  density of labelling of PDI relative to thioredoxin: approximately twice
Bovine serum albumin
  incorporation of GSAO-B: albumin did not

## O=[As]c1ccc(NC(=O)CSCCC(=O)N[C@@H](CC(=O)O)C(=O)O)cc1 (stereo partly drawn) [AspAO, N-(3-(4-arsenoso-phenylcarbamoylmethylthio)propanoyl)-L-aspartic acid]
BAE cells
  IC50: < 1 µM

## O=[As]c1ccc(NC(=O)CSCCC(=O)N[C@@H](CS(=O)(=O)O)C(=O)O)cc1 (stereo partly drawn) [Cys*AO, N-(3-(4-arsenosophenylcarbamoylmethylthio)propanoyl)-L-cysteic acid]
BAE cells
  IC50: < 10 µM

## O=[As]c1ccc(NC(=O)CSCCC(=O)N[C@H]2C(O)O[C@H](CO)[C@@H](O)[C@@H]2O)cc1 (stereo partly drawn) [GlcAO, N-(3-(4-arsenosophenylcarbamoylmethylthio)propanoyl)-D-glucosamine]
BAE cells
  IC50: < 1 µM

## O=[As]c1ccc(NC(=O)CSCCC(=O)N[C@@H](CCC(=O)O)C(=O)O)cc1 (stereo partly drawn) [GluAO, N-(3-(4-arsenosophenylcarbamoylmethylthio)propanoyl)-L-glutamic acid]
BAE cells
  IC50: < 10 µM
